From PubChem BioAssay AID623876 (Vanderbilt Specialized Chemistry Center, 2012) come the findings set out here.

Several values for one entry are separate records, joined by “and”; a condition that tells them apart may be missing. Identical values can stand only once. Activity calls are given as the source filed them.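 How the source made its calls: active means mean EC50 dose giving half the maximal effect below 30 µM; inactive means mean EC50 of 30 µM or more.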

Chain of Metabotropic glutamate receptor 4 (Homo sapiens) (Q14833 whole entry, looked up): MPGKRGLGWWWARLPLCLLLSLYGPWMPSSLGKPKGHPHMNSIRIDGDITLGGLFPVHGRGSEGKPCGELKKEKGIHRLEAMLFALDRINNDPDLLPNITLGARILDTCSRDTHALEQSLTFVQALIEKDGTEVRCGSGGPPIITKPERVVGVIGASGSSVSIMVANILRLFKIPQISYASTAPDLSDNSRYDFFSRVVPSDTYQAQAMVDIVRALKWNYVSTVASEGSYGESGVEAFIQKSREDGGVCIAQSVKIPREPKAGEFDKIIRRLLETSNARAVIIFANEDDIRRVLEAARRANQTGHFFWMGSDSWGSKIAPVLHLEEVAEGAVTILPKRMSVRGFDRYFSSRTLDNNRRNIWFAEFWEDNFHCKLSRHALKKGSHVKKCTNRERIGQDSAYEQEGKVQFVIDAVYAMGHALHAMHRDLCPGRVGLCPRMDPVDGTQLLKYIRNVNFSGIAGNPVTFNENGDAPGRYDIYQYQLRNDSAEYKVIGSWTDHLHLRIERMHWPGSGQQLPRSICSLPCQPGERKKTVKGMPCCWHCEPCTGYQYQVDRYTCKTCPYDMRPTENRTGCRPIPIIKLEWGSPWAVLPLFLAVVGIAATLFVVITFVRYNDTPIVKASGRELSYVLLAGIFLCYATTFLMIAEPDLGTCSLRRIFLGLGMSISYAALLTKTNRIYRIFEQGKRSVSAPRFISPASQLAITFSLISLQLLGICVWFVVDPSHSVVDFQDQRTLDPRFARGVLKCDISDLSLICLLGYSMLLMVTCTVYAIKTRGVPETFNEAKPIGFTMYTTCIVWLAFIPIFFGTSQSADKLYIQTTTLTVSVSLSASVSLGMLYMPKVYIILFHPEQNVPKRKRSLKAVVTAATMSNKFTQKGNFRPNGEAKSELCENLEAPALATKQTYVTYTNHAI

The first assay concerns the target Metabotropic glutamate receptor 4 (Homo sapiens) (UniProt Q14833). Description: mGlu4 positive allosteric modulators, SAR follow-up, human, CHO Gqi5 cells, calcium mobilization (AID 623876). As to conditions: CHO hmGlu4/Gqi5 calcium mobilization, PAM at EC20 glutamate. Background: A change in cytosolic calcium serves as a functional read-out for many receptors and channels.
As a reminder, the EC50 is the concentration that produces a half-maximal response. Consider `CC(C)N(C(=O)c1ccccn1)c1cccc(Cl)c1`, for which the EC50 was over 10 µM.

With `COc1cc2nc(-c3ncc[nH]3)[nH]c2cc1Cl`, the EC50 was over 10 µM.

`O=C(Nc1cccc(Cl)c1)c1ccccn1`: the EC50 was 1.2 µM.

As for `O=C(c1cscn1)N1CCOc2ccc(Cl)cc21`, the EC50 is over 10 µM.

On to `Clc1ccc2nc(-c3ccccn3)[nH]c2c1`, for which the EC50 is 4.68 µM.

As for `O=c1[nH]c(-c2ccccn2)nc2cc(Cl)ccc12`, the EC50 is over 10 µM.

As to `Fc1cccc(Nc2noc3cccnc23)c1`, the EC50 is 1.19 µM.

For the compound `Clc1cccc(Nc2coc3cccnc23)c1`, the EC50 is over 10 µM.

In the case of `COc1cc(NC(=O)c2ccccc2F)ccc1Cl`, the EC50 is over 10 µM.

Regarding `Clc1cccc(Nc2nc3ccccc3o2)c1`, the EC50 was 0.6 µM.

Regarding `O=C(Nc1ccc2cn[nH]c2c1)c1ccccn1`, the EC50 was 1.37 µM.

With `O=C(Nc1nc(C(F)(F)F)cs1)c1ccccn1`, the EC50 was over 10 µM.

As for `FC(F)Oc1cccc(Nc2noc3cccnc23)c1`, the EC50 is 0.36 µM and 0.44 µM.

As for `Clc1cccc(Nc2noc3cccnc23)c1`, the EC50 is 0.47 µM and 0.3 µM and 0.25 µM.

Take `Clc1cccc(Nc2ccccn2)c1`: the EC50 is over 10 µM.

Turning to `Clc1cccc(Nc2ncnc3cccnc23)c1`, the EC50 is 7.22 µM.

On to `Fc1ccc2nc(-c3ccccn3)[nH]c2c1`, for which the EC50 was over 10 µM.

As for `COc1cc2nc(-c3ccccn3)[nH]c2cc1Cl`, the EC50 was over 10 µM.

Turning to `O=C(Nc1ccc2cc[nH]c2c1)c1ccccn1`, the EC50 was over 10 µM.

As for `O=C(Nc1ccc2c(c1)C(=O)NC2=O)c1ccccn1`, the EC50 is 3.82 µM.

As for `COc1cc(Nc2noc3cccnc23)ccc1Cl`, the EC50 is 3.26 µM.

Staying with this assay, now noted: CHO hmGlu4/Gqi5 calcium mobilization, PAM at EC20 glutamate; hits give high values.
With `O=C(c1cccs1)N1CCOc2ccc(Cl)cc21`, the “% glutamate max response” value is “inactive”.

On to `Cn1ccc(NC(=O)c2ccccn2)n1`, for which the “% glutamate max response” value is “inactive”.

As to `Fc1cccc(Nc2ncnc3cccnc23)c1`, the “% glutamate max response” value is “inactive”.

Regarding `COc1cc(Nc2ncn3ccccc23)ccc1Cl`, the “% glutamate max response” value was “inactive”.

In the case of `Clc1cccc(Nc2nccc3cccnc23)c1`, the “% glutamate max response” value was “inactive”.

Turning to `O=C(c1ccccn1)N(Cc1ccccn1)c1cccc(Cl)c1`, the “% glutamate max response” value was “inactive”.

Take `COc1cc(Nc2nccc3ccccc23)ccc1Cl`: the “% glutamate max response” value was “inactive”.

For `COc1cc(Nc2cccc3cccnc23)ccc1Cl`, the “% glutamate max response” value was “inactive”.

Turning to `COc1cc(N2Cc3ccccc3C2=O)ccc1Cl`, the “% glutamate max response” value was “inactive”.

Consider `O=C1c2cccnc2C(=O)N1c1cccc(Cl)c1`, for which the “% glutamate max response” value is “inactive”.

`O=C(NCc1cccc(Cl)c1)c1ccccn1`: the “% glutamate max response” value is “inactive”.

As for `COc1cc(NS(=O)(=O)c2ccccn2)ccc1Cl`, the “% glutamate max response” value was “inactive”.

Turning to `Clc1cccc(-c2n[nH]c(-c3ccccn3)n2)c1`, the “% glutamate max response” value is “inactive”.

`COc1cc(N2C(=O)c3ccccc3C2=O)ccc1Cl`: the “% glutamate max response” value was “inactive”.

With `O=C(c1cncs1)N1CCOc2ccc(Cl)cc21`, the “% glutamate max response” value was “inactive”.

For the compound `CCN(C(=O)c1ccccn1)c1cccc(Cl)c1`, the “% glutamate max response” value was “inactive”.

For `Cn1ccnc1NC(=O)c1ccccn1`, the “% glutamate max response” value is “inactive”.

For `O=C(c1ccccn1)N1CCOc2ccc(Cl)cc21`, the “% glutamate max response” value is “inactive”.

On to `O=C(NCCc1cccc(Cl)c1)c1ccccn1`, for which the “% glutamate max response” value was “inactive”.

Turning to `Brc1cccc(-c2nc(-c3ccccn3)no2)c1`, the “% glutamate max response” value is “inactive”.

As to `COc1cc(NC(=O)c2ccccc2C)ccc1Cl`, the “% glutamate max response” value is “inactive”.

As to `COc1cc(NC(C)=O)ccc1Cl`, the “% glutamate max response” value was “inactive”.

Turning to `O=C1COc2cc(NC(=O)c3ccccn3)ccc2N1`, the “% glutamate max response” value is “inactive”.

On to `FC(F)(F)c1cccc(-c2nc(-c3ccccn3)no2)c1`, for which the “% glutamate max response” value was “inactive”.

Take `Fc1ccc(Nc2ncnc3cccnc23)cc1Cl`: the “% glutamate max response” value is “inactive”.

As for `COc1cccc(C(=O)N2CCOc3ccc(Cl)cc32)n1`, the “% glutamate max response” value is “inactive”.

With `c1cnc2c(Nc3ccc4c(c3)OCO4)ncnc2c1`, the “% glutamate max response” value is “inactive”.

Regarding `COc1cc(N2C(=O)c3cccnc3C2=O)ccc1Cl`, the “% glutamate max response” value is “inactive”.

With `Cc1nc(NC(=O)c2ccccn2)nn1C`, the “% glutamate max response” value is “inactive”.

As to `c1ccc(Nc2coc3cccnc23)cc1`, the “% glutamate max response” value was “inactive”.

With `COc1cc(NC(=O)c2c(F)cccc2F)ccc1Cl`, the “% glutamate max response” value is “inactive”.

For `O=C(c1ccccn1)N1CCOc2c(Cl)cccc21`, the “% glutamate max response” value was “inactive”.

For the compound `Cc1nsc(NC(=O)c2ccccn2)n1`, the “% glutamate max response” value was “inactive”.

Consider `Fc1ccc(Nc2ncnc3cccnc23)cc1F`, for which the “% glutamate max response” value was “inactive”.

For `Cn1cnc(NC(=O)c2ccccn2)n1`, the “% glutamate max response” value was “inactive”.

Take `Clc1cccc(-c2nc(-c3ccccn3)no2)c1`: the “% glutamate max response” value was “inactive”.

Turning to `O=C(c1ccncn1)N1CCOc2ccc(Cl)cc21`, the “% glutamate max response” value was “inactive”.

Take `COc1cc(OC)cc(-c2nc(-c3ccccn3)no2)c1`: the “% glutamate max response” value was “inactive”.

For the compound `COc1cc(Nc2nc3ccccc3o2)ccc1Cl`, the “% glutamate max response” value was “inactive”.

Take `c1ccc(Nc2ncnc3cccnc23)cc1`: the “% glutamate max response” value is “inactive”.

Turning to `O=C(c1ccco1)N1CCOc2ccc(Cl)cc21`, the “% glutamate max response” value was “inactive”.

Take `Clc1cccc(Nc2nccc3ccccc23)c1`: the “% glutamate max response” value is “inactive”.

As for `O=C(c1cccc(Cl)n1)N1CCOc2ccc(Cl)cc21`, the “% glutamate max response” value is “inactive”.

As for `COc1ccc(Nc2ncnc3cccnc23)cc1Cl`, the “% glutamate max response” value is “inactive”.

In the case of `Clc1cccc(Nc2cccc3cccnc23)c1`, the “% glutamate max response” value is “inactive”.

Regarding `COc1cc2nc(-c3cnccn3)[nH]c2cc1Cl`, the “% glutamate max response” value is “inactive”.

As to `COc1cc(Nc2nccc3cccnc23)ccc1Cl`, the “% glutamate max response” value was “inactive”.

With `Cc1cc(Nc2ncnc3cccnc23)ccc1Cl`, the “% glutamate max response” value is “inactive”.
